According to ChEMBL document CHEMBL1201862, “PubChem BioAssay data set” (2004):
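Each compound was tested at five concentrations against cells in 96-well plates for 48 hours. Here, GI50 denotes the concentration required for 50% inhibition of growth.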 Activity calls are given as the source filed them. No stated cut-off is given here; in the data, active = GI50 up to about 1.1 µM and inactive = higher.

Columns and labels:
Assay in all cases: DTP human tumour cell line panel, 48 h
[1] = tested on: ACHN
[2] = tested on: BT-549
[3] = tested on: HCC 2998
[4] = tested on: HL-60
[5] = tested on: HOP-92
[6] = tested on: Hs-578T
[7] = tested on: IGROV-1
[8] = tested on: LOX IMVI
[9] = tested on: MOLT-4
[10] = tested on: NCI-H226
[11] = tested on: NCI-H460
[12] = tested on: OVCAR-3
[13] = tested on: PC-3
[14] = tested on: SF-268
[15] = tested on: SF-295
[16] = tested on: SK-MEL-5
[17] = tested on: SK-OV-3
[18] = tested on: SN12C
[19] = tested on: SNB-19
[20] = tested on: UACC-62

| Structure (SMILES) | GI50 [1] | GI50 [2] | GI50 [3] | GI50 [4] | GI50 [5] | GI50 [6] | GI50 [7] | GI50 [8] | GI50 [9] | GI50 [10] | GI50 [11] | GI50 [12] | GI50 [13] | GI50 [14] | GI50 [15] | GI50 [16] | GI50 [17] | GI50 [18] | GI50 [19] | GI50 [20] |
| --- | --- | --- | --- | --- | --- | --- | --- | --- | --- | --- | --- | --- | --- | --- | --- | --- | --- | --- | --- | --- |
| OC(c1cc(C23CC4CC(CC(C4)C2)C3)nc2c(Cl)cc(Cl)cc12)C1CCCCN1 (stereo not given) | 1.69 µM (inactive) | 2.02 µM (inactive) | 0.344 µM (active) | 2.11 µM (inactive) | 2.05 µM (inactive) | 2.03 µM (inactive) | 1.77 µM (inactive) | 1.49 µM (inactive) | 0.608 µM (active) | 2.07 µM (inactive) | 1.61 µM (inactive) | 1.78 µM (inactive) | 1.62 µM (inactive) | 1.79 µM (inactive) | 1.67 µM (inactive) | 2.63 µM (inactive) | 1.77 µM (inactive) | 1.62 µM (inactive) | 1.6 µM (inactive) | 1.76 µM (inactive) |
| C=C1C(=O)C2=CC1CCC(=O)C1(C)CCC(OC(C)=O)C(C)(C)C1CC2O (stereo not given) | 1.12 µM (inactive) | 3.08 µM (inactive) | 1.95 µM (inactive) | 0.288 µM (active) | 4.22 µM (inactive) | 3.58 µM (inactive) | 3.03 µM (inactive) | 1.14 µM (inactive) | 0.661 µM (active) | 7.76 µM (inactive) | 1.63 µM (inactive) | 3.73 µM (inactive) | 7.19 µM (inactive) | 3.4 µM (inactive) | 9.31 µM (inactive) | 1.82 µM (inactive) | 8.95 µM (inactive) | 2.53 µM (inactive) | 3.58 µM (inactive) | 2.27 µM (inactive) |
| C[C@H]1CC[C@@H]2[C@@H](C)[C@H]3[C@H](C[C@H]4[C@@H]5CC=C6C[C@@H](O)CC[C@]6(C)[C@H]5CC[C@]34C)N2C1 | 59.8 µM (inactive) | 93.1 µM (inactive) | 97.1 µM (inactive) | 17.5 µM (inactive) | 12.6 µM (inactive) | 33.3 µM (inactive) | 27.9 µM (inactive) | 36.1 µM (inactive) | 24.5 µM (inactive) | 14.6 µM (inactive) | 37.9 µM (inactive) | > 100 µM (inactive) | 50.9 µM (inactive) | > 100 µM (inactive) | 40.6 µM (inactive) | 38.3 µM (inactive) | > 100 µM (inactive) | > 100 µM (inactive) | 97.9 µM (inactive) | 43 µM (inactive) |
| O=C(NCCCNCCCCNCCCNC(=O)c1cc(-c2ccccc2)nc2ccccc12)c1cc(-c2ccccc2)nc2ccccc12 | 18.5 µM (inactive) | 3.13 µM (inactive) | 2.01 µM (inactive) | 1.79 µM (inactive) | 1.48 µM (inactive) | 1.75 µM (inactive) | 2.16 µM (inactive) | 1.64 µM (inactive) | 1.9 µM (inactive) | 1.83 µM (inactive) | 2.32 µM (inactive) | 2.66 µM (inactive) | 2.12 µM (inactive) | 1.71 µM (inactive) | 3.26 µM (inactive) | 2.61 µM (inactive) | 2.27 µM (inactive) | 2.23 µM (inactive) | 1.67 µM (inactive) | 2.16 µM (inactive) |
| CN(C)c1ccc(/C=C/c2cc(-c3ccccc3)[n+](C)n2-c2ccccc2)cc1 | 1.44 µM (inactive) | 0.0571 µM (active) | 1.64 µM (inactive) | 0.0218 µM (active) | 0.467 µM (active) | 0.0332 µM (active) | 0.154 µM (active) | 0.299 µM (active) | 0.144 µM (active) | 0.138 µM (active) | 0.122 µM (active) | 0.234 µM (active) | 0.158 µM (active) | 0.431 µM (active) | 0.614 µM (active) | 0.0341 µM (active) | 0.401 µM (active) | 0.293 µM (active) | 0.0865 µM (active) | 0.481 µM (active) |
